The values that follow come from patent publication US10752595B2, “Crystalline forms of a bromodomain and extraterminal protein inhibitor drug, processes for preparation thereof, and use thereof” (Crystal Pharmaceutical (Suzhou) Co., Ltd., priority 2016, dated 2020).

Structures are written as SMILES. Values after ≈ are worked out from the molar mass of the structure shown. “Also recorded” adds a separate entry of the source.

Holding throughout (type): physicochemical
A short description of series [1]: Solubility study: saturated solutions in SGF and FeSSIF, concentration by HPLC. As to conditions: for Solubility FeSSIF: FeSSIF (fed state simulated intestinal fluids, pH=5.0). An excerpt: High Performance Liquid Chromatography (HPLC) data in the present disclosure were collected from an Agilent 1260 with Diode Array Detector (DAD). The HPLC method parameters for purity test in the present disclosure are as follows: • 1. Column: Waters XBridge C18 150×4.6 mm, 5 μm • 2. Mobile Phase: A: 0.1% TFA in H2O • B: 0.1% TFA in Acetonitrile
The prepared apabetalone Form CS2 was suspended into SGF (simulated gastric fluids) and FeSSIF (fed state simulated intestinal fluids, pH=5.0) to obtain saturated solutions. After being equilibrated for 1 h and 24 h, concentrations of the saturated solutions were measured by HPLC.
The prepared Form CS8 was suspended into SGF (simulated gastric fluids) and FeSSIF (fed state simulated intestinal fluids, pH=5.0) to obtain saturated solutions. After being equilibrated for 1 h, concentrations of the saturated solutions were measured by HPLC.
The prepared Form CS13 was suspended into SGF (simulated gastric fluids) and FeSSIF (fed state simulated intestinal fluids, pH=5.0) to obtain saturated solutions. After being equilibrated for 1 h, 4 h and 24 h, concentrations of the saturated solutions were measured by HPLC.
The prepared apabetalone Form CS20 was suspended into SGF (simulated gastric fluids) and FeSSIF (fed state simulated intestinal fluids, pH=5.0) to obtain saturated solutions. After being equilibrated for 1 h, 4 h and 24 h, concentrations of the saturated solutions were measured by HPLC.
The prepared solid of apabetalone Form CS1 was suspended into SGF (simulated gastric fluids) and FeSSIF (fed state simulated intestinal fluids, pH=5.0) to obtain saturated solutions. After being equilibrated for 1 h, 4 h and 24 h, concentrations of the saturated solutions were measured by HPLC.
The prepared solid of apabetalone Form CS7 was suspended into SGF (simulated gastric fluids) and FeSSIF (fed state simulated intestinal fluids, pH=5.0) to obtain saturated solutions. After being equilibrated for 1 h, 4 h and 24 h, concentrations of the saturated solutions were measured by HPLC.
The prepared solid of apabetalone Form CS9 was suspended into SGF (simulated gastric fluids) and FeSSIF (fed state simulated intestinal fluids, pH=5.0) to obtain saturated solutions. After being equilibrated for 1 h, 4 h and 24 h, concentrations of the saturated solutions were measured by HPLC.
The prepared solid of apabetalone Form CS11 was suspended into SGF (simulated gastric fluids) and FeSSIF (fed state simulated intestinal fluids, pH=5.0) to obtain saturated solutions. After being equilibrated for 1 h, 4 h and 24 h, concentrations of the saturated solutions were measured by HPLC.
The prepared solid of apabetalone Form CS4 was suspended into SGF (simulated gastric fluids) and FeSSIF (fed state simulated intestinal fluids, pH=5.0) to obtain saturated solutions. After being equilibrated for 1 h, 4 h and 24 h, concentrations of the saturated solutions were measured by HPLC.

Series [2] in a line: Stability study: open-dish storage in constant temperature and humidity chambers, XRPD and purity check. As to conditions: for Form change and purity decrease after storage: open dish. On the procedure: Form CS8 was placed in a constant temperature and humidity chamber at 25° C./60% RH for 2 weeks in open dish. Crystalline form of the sample were tested by XRPD and impurity of the sample were checked. […] Crystalline form of the sample were tested by XRPD and impurity of the sample were checked. […] Two samples of apabetalone Form CS1 were placed in constant temperature and humidity chambers at 25° C./60% RH and 40° C./75% RH for 10 months in open dishes. The samples were characterized by XRPD and chemical impurity. […] Three samples of apabetalone Form CS7 were placed in constant temperature and humidity chambers at 25° C./60% RH and 40° C./75% RH for 4 weeks and 80° C. for 1 day in open dishes. Crystalline form of the sample were tested by XRPD and impurity of the sample were checked. […] Two samples of apabetalone Form CS9 were placed in constant temperature and humidity chambers at 25° C./60% RH and 40° C./75% RH for 10 months in open dishes. Crystalline form of the sample were tested by XRPD and impurity of the sample were tested to check the stability of Form CS9. […] Two samples of apabetalone Form CS11 were placed in constant temperature and humidity chambers at 25° C./60% RH and 40° C./75% RH for 6 weeks in open dishes. Crystalline form of the sample were tested by XRPD and impurity of the sample were tested to check the stability of Form CS11. […] Two samples of apabetalone Form CS4 were placed in open dishes in constant temperature and humidity chambers at 25° C./60% RH and 40° C./75% RH for 10 months. Crystalline form of the sample were tested by XRPD and impurity of the sample were tested to check the stability of Form CS4.

Series [3] in a line: Hygroscopicity by dynamic vapor sorption (DVS). Conditions: for Hygroscopicity class: Chinese Pharmacopoeia 2015 criteria, 80% RH; for Hygroscopicity class / Weight Gain under 80% Relative Humidity: 25° C.; for Weight Gain under 80% Relative Humidity: DVS, about 10 mg of sample; for Form change after DVS test (XRPD): XRPD before and after DVS test. As to the method: Dynamic Vapor Sorption (DVS) was measured via a SMS (Surface Measurement Systems Ltd.) intrinsic DVS instrument. Its control software is DVS—Intrinsic control software, and its analysis software is DVS—Intrinsic Analysis software. Typical Parameters for DVS test are as follows: • Temperature: 25° C. • Gas and flow rate: N2, 200 mL/min • dm/dt: 0.002%/min • RH range: 0% RH to 95% RH Dynamic vapor sorption (DVS) was applied to test hygroscopicity of Form CS8 in the present disclosure with about 10 mg of sample. […] Dynamic vapor sorption (DVS) was applied to test hygroscopicity of Form CS1 of the present disclosure with about 10 mg of sample. […] Dynamic vapor sorption (DVS) was applied to test hygroscopicity of Form CS7 of the present disclosure with about 10 mg of samples. Dynamic vapor sorption (DVS) was applied to test hygroscopicity of Form CS9 of the present disclosure with about 10 mg of sample. […] Dynamic vapor sorption (DVS) was applied to test hygroscopicity of Form CS4 of the present disclosure with about 10 mg of sample.

The mark [4] stands for this setting: SGF (simulated gastric fluids), equilibrated 1 h.
[5] abbreviates: SGF (simulated gastric fluids), equilibrated 4 h.
[6] abbreviates: SGF (simulated gastric fluids), equilibrated 24 h.

Take `COc1cc(OC)c2c(=O)[nH]c(-c3cc(C)c(OCCO)c(C)c3)nc2c1` [Form CS2, 2-[4-(2-hydroxyethoxy)-3,5-dimethylphenyl]-5,7-dimethoxyquinazolin-4(3H)-one]: the “Solubility FeSSIF” value is reported as 0.15 mg/mL (≈ 405 µM) in series [1] (equilibrated 1 h) and 0.24 mg/mL (≈ 648 µM) in series [1] (equilibrated 24 h). For the same compound, the “Solubility SGF” value in series [1] (setting [4]) is 0.49 mg/mL (≈ 1320 µM). Moreover, the concentration in solution in series [1] (SGF (simulated gastric fluids), simulated gastric fluid, thermodynamic from solid, equilibrated 24 h) (solubility at 24 h) was 610 µg/mL (≈ 1650 µM).
Consider `COc1cc(OC)c2c(=O)[nH]c(-c3cc(C)c(OCCO)c(C)c3)nc2c1` [Form CS7, 2-[4-(2-hydroxyethoxy)-3,5-dimethylphenyl]-5,7-dimethoxyquinazolin-4(3H)-one], for which the “Solubility FeSSIF” value in series [1] (equilibrated 1 h) is given as 0.19 mg/mL (≈ 513 µM); in series [1] (equilibrated 4 h), 0.17 mg/mL (≈ 459 µM); in series [1] (equilibrated 24 h), 0.29 mg/mL (≈ 783 µM). For the same compound, the “Solubility SGF” value in series [1] (setting [4]) is 0.38 mg/mL (≈ 1030 µM); in series [1] (setting [5]), 0.42 mg/mL (≈ 1130 µM); in series [1] (setting [6]) it was 0.58 mg/mL (≈ 1570 µM). Besides, the “Time the form is stable when stored” value in series [2] (25° C./60% RH) and in series [2] (40° C./75% RH) was “at least 4 weeks” in each case. Moreover, the “Form change and purity decrease after storage” value (from here on “Form change and purity decrease”) in series [2] (25° C./60% RH, 4 weeks) is “No form change and obvious purity decrease”; in series [2] (40° C./75% RH, 4 weeks), “No form change and obvious purity decrease”; in series [2] (80° C., 1 day), “No form change and obvious purity decrease”. Further, the Hygroscopicity class entry in series [3] was “slightly hygroscopic (Increase in mass is less than 2 percent and equal to or greater than 0.2 percent)”. Besides, the “Weight Gain under 80% Relative Humidity” value in series [3] came out at 0.79%. The “Form change after DVS test (XRPD)” value in series [3] was “No form change”.
`COc1cc(OC)c2c(=O)[nH]c(-c3cc(C)c(OCCO)c(C)c3)nc2c1` [Form CS8, 2-[4-(2-hydroxyethoxy)-3,5-dimethylphenyl]-5,7-dimethoxyquinazolin-4(3H)-one]: the “Solubility FeSSIF” value in series [1] (equilibrated 1 h) is on record as 0.28 mg/mL (≈ 756 µM). Also, the “Solubility SGF” value in series [1] (setting [4]) is reported as 0.43 mg/mL (≈ 1160 µM). The “Time the form is stable when stored” value in series [2] (25° C./60% RH) is reported as “at least 2 weeks”. Moreover, in series [2] (25° C./60% RH, 2 weeks), the “Form change and purity decrease” value was “No obvious form change and purity decrease”. Besides, in series [3], the Hygroscopicity class entry was “slightly hygroscopic (Increase in mass is less than 2 percent and equal to or greater than 0.2 percent)”; the “Weight Gain under 80% Relative Humidity” value turned out to be 0.34%; the “Form change after DVS test (XRPD)” value was “No form change”.
For `COc1cc(OC)c2c(=O)[nH]c(-c3cc(C)c(OCCO)c(C)c3)nc2c1` [Form CS9, 2-[4-(2-hydroxyethoxy)-3,5-dimethylphenyl]-5,7-dimethoxyquinazolin-4(3H)-one], the “Solubility FeSSIF” value is given as 0.17 mg/mL (≈ 459 µM) in series [1] (equilibrated 1 h), 0.13 mg/mL (≈ 351 µM) in series [1] (equilibrated 4 h) and 0.20 mg/mL (≈ 540 µM) in series [1] (equilibrated 24 h). Moreover, the “Solubility SGF” value in series [1] (setting [4]) is reported as 0.30 mg/mL (≈ 810 µM); in series [1] (setting [5]), 0.31 mg/mL (≈ 837 µM); in series [1] (setting [6]) it was 0.37 mg/mL (≈ 999 µM). The “Time the form is stable when stored” value in series [2] (25° C./60% RH) and in series [2] (40° C./75% RH) was “at least 10 months” throughout. Besides, the “Form change and purity decrease” value is “No form change and obvious purity decrease” in series [2] (25° C./60% RH, 10 months); “No form change and obvious purity decrease” in series [2] (40° C./75% RH, 10 months). Further, the Hygroscopicity class result in series [3] was “almost non hygroscopic”. Also, the “Weight Gain under 80% Relative Humidity” value in series [3] came to 0.18%. Also, the “Form change after DVS test (XRPD)” value in series [3] is reported as “doesn't change; also recorded: No form change”.
Take `COc1cc(OC)c2c(=O)[nH]c(-c3cc(C)c(OCCO)c(C)c3)nc2c1` [Form CS11, 2-[4-(2-hydroxyethoxy)-3,5-dimethylphenyl]-5,7-dimethoxyquinazolin-4(3H)-one]: the “Solubility SGF” value in series [1] (setting [4]) is 0.71 mg/mL (≈ 1920 µM); in series [1] (setting [5]), 0.65 mg/mL (≈ 1750 µM); in series [1] (setting [6]), 0.65 mg/mL (≈ 1750 µM). Further, the “Time the form is stable when stored” value in series [2] (25° C./60% RH) and in series [2] (40° C./75% RH) was “at least 6 weeks” each time. Also, the “Form change and purity decrease” value in series [2] (25° C./60% RH, 6 weeks) is “No form change and obvious purity decrease”; in series [2] (40° C./75% RH, 6 weeks) it was “No form change and obvious purity decrease”.
As to `COc1cc(OC)c2c(=O)[nH]c(-c3cc(C)c(OCCO)c(C)c3)nc2c1` [Form CS13, 2-[4-(2-hydroxyethoxy)-3,5-dimethylphenyl]-5,7-dimethoxyquinazolin-4(3H)-one], the “Solubility FeSSIF” value in series [1] (equilibrated 1 h) is recorded as 0.13 mg/mL (≈ 351 µM); in series [1] (equilibrated 4 h) it was 0.14 mg/mL (≈ 378 µM); in series [1] (equilibrated 24 h) it was 0.14 mg/mL (≈ 378 µM). Besides, the “Solubility SGF” value is given as 0.35 mg/mL (≈ 945 µM) in series [1] (setting [4]), 0.31 mg/mL (≈ 837 µM) in series [1] (setting [5]) and 0.33 mg/mL (≈ 891 µM) in series [1] (setting [6]).
For `COc1cc(OC)c2c(=O)[nH]c(-c3cc(C)c(OCCO)c(C)c3)nc2c1` [Form CS20, 2-[4-(2-hydroxyethoxy)-3,5-dimethylphenyl]-5,7-dimethoxyquinazolin-4(3H)-one], the “Solubility FeSSIF” value in series [1] (equilibrated 1 h) is 0.19 mg/mL (≈ 513 µM); in series [1] (equilibrated 4 h) it was 0.16 mg/mL (≈ 432 µM); in series [1] (equilibrated 24 h), 0.22 mg/mL (≈ 594 µM). Also, the “Solubility SGF” value is on record as 0.44 mg/mL (≈ 1190 µM) in series [1] (setting [4]), 0.41 mg/mL (≈ 1110 µM) in series [1] (setting [5]) and 0.51 mg/mL (≈ 1380 µM) in series [1] (setting [6]). For the same compound, the “Time the form is stable when stored” value in series [2] (25° C./60% RH) and in series [2] (40° C./75% RH) was “at least 2 weeks” in each case. The “Form change and purity decrease” value in series [2] (25° C./60% RH, 2 weeks) was “No form change and obvious purity decrease”; in series [2] (40° C./75% RH, 2 weeks), “No form change and obvious purity decrease”.

Broadly, the solubility is how much of the substance goes into solution per volume. Lower therefore signals a poorly soluble substance.
